Drawing on US9815842B2, “Pyrazolo pyrimidine derivatives and their use as MALT1 inhibitors” (Novartis AG, priority 2014, dated 2017), this text covers IC50 for 23 compounds.

Assay [1] has as its target cIAP2-MALT1 fusion protein (Homo sapiens, UniProt Q9UDY8). The assay can be described thus: cell-based.
In assay [2] the target is C-domain of MALT1 (amino acids 329-824) (Homo sapiens (Human), UniProt Q9UDY8). The assay can be described thus: MALT1 biochemical assay (fluorescence lifetime enzyme activity assay). The settings on record: 60 min pre-incubation, 2.5 nM enzyme, 1 μM peptide substrate. On the procedure: The readout parameter is the increase of fluorescence lifetime over time, proportional to enzyme activity.
The assay employs a short peptide substrate labeled with the single fluorophore PT14 as a fluorescence lifetime probe sensitive to the cleavage state of the substrate (PT14: 6-(9-oxo-9H-acridin-10-yl)-hexanoate, AssayMetrics, UK). […] The assay buffer consists of 200 mM Tris/HCl at pH 7.5, 0.8 M Na citrate, 100 μM EGTA, 100 μM DTT and 0.05% (w/v) CHAPS. […] Test compounds were dissolved in 100% (v/v) DMSO or a mixture containing 90% (v/v) DMSO and 10% (v/v) H2O at a stock concentration of 100 mM. Serial dilutions of test compounds were prepared using either 100% (v/v) DMSO or a mixture containing 90% (v/v) DMSO and 10% (v/v) H2O.

In a further assay the test system is Human IL2 promoter. The assay can be described thus: Human IL2 promoter reporter gene assay (RGA) in Jurkat cells. To be noted: Jurkat clone K22 290_H23, anti-CD28 mAb + PMA stimulation 5.5 h. In kind it is cell-based. On the procedure: Human IL2 Promoter Reporter Gene Assay (RGA) in Jurkat Cells
The transfected Jurkat clone K22 290_H23 was propagated in RPMI 1640 supplemented with 10% heat inactivated fetal calf serum, 50 μM 2-mercaptoethanol and 1 mg/ml Geneticin. The cell concentration should not exceed 1×10e6/ml during culturing. The cells should not exceed passage 30. Prior to the assay the cells were washed and prepared to the concentration of 2×10e6 cells/ml.
Compound dilutions were made as 2×-concentrated solutions then diluted 1/2 by addition to cells. Two hundred and fifty μl of compound dilution and 250 μl of cells were mixed together in wells of a 96-deep well plate. Cells/compounds premix were incubated 30 min at 37° C. and 5% CO2 directly in the deep well plate.
After pre-incubation of cells with compounds, cells were stimulated with anti-CD28 mAb (clone 15E8) at 3 μg/ml+PMA at 1 μg/ml. Both co-stimulants were diluted in culture medium at a 10×-concentrated solution. 10 μl of co-stimulants were pipetted into the white 96-well plates and 100 μl of cell/compound mix was immediately added in duplicates. The cells were stimulated for 5.5 h at 37° C. and 5% CO2.
After cell stimulation, 50 μl of BriteLitePlus reagent (Perkin Elmer) was added to each well and the bioluminescence was measured with a Wallac EnVision reader (Perkin Elmer).
Background: In a reporter assay the amount or activity of a reporter protein is the signal.

Each structure is given as a SMILES string.

C-domain of MALT1 (amino acids 329-824), sequence (Q9UDY8 329-824): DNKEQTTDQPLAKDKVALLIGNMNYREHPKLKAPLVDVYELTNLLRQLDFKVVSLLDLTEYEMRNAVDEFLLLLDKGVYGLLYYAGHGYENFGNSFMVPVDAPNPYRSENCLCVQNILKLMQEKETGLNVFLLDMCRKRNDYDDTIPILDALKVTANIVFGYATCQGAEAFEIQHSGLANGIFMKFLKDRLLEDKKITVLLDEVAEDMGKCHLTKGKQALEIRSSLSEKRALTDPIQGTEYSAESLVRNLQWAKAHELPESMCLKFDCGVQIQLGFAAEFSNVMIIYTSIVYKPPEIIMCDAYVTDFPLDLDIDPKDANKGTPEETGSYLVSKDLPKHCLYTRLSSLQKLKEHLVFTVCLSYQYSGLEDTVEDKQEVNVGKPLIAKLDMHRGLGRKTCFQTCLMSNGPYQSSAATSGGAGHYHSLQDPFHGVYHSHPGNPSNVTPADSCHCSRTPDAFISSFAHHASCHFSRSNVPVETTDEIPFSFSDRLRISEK
cIAP2-MALT1 fusion protein, sequence (Q9UDY8 2-824 limits assumed): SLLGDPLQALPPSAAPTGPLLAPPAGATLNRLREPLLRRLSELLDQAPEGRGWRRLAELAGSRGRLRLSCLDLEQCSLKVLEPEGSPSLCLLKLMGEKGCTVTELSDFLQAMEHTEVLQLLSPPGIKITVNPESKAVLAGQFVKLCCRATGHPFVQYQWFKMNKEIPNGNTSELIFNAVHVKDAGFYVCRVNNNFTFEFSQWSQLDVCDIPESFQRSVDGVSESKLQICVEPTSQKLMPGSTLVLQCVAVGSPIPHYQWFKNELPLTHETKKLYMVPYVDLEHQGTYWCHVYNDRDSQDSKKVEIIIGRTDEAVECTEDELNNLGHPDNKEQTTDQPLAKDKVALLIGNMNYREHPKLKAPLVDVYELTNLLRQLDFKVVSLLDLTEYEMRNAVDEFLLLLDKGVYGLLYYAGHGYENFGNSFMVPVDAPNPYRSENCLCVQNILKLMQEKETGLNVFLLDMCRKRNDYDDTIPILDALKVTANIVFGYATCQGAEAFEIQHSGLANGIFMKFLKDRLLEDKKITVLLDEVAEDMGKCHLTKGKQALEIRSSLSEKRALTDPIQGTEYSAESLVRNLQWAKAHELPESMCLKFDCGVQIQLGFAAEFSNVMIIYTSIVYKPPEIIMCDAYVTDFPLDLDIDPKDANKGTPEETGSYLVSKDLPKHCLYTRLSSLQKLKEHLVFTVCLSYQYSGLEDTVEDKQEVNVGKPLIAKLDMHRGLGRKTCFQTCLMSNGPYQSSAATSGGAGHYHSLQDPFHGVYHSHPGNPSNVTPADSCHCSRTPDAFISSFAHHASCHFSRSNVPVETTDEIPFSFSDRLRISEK

For the compound `O=C(Nc1cnc(-n2nccn2)c(Cl)c1)Nc1cnc2cc(Cl)nn2c1CC1CCOCC1` [Example 60, 1-(5-chloro-6-(2H-1,2,3-triazol-2-yl)pyridin-3-yl)-3-(2-chloro-7-((tetrahydro-2H-pyran-4-yl)methyl)pyrazolo[1,5-a]pyrimidin-6-yl)urea], the IC50 in assay [1] was found to be 502 nM; in assay [2], 26 nM.

In turn, `CC(C)(C)OC(=O)N1CCOC(c2c(NC(=O)Nc3cnc(-n4nccn4)c(Cl)c3)cnc3cc(Cl)nn23)C1` (stereo not drawn) [Example 66, tert-butyl 2-(2-chloro-6-(3-(5-chloro-6-(2H-1,2,3-triazol-2-yl)pyridin-3-yl)ureido)pyrazolo[1,5-a]pyrimidin-7-yl)morpholine-4-carboxylate] returned an IC50 in assay [1] of 241 nM.

Turning to `CN1CCCC[C@H]1c1c(NC(=O)Nc2cnc(-n3nccn3)c(Cl)c2)cnc2cc(Cl)nn12` [Example 84, (S)-1-(5-chloro-6-(2H-1,2,3-triazol-2-yl)pyridin-3-yl)-3-(2-chloro-7-(1-methylpiperidin-2-yl)pyrazolo[1,5-a]pyrimidin-6-yl)urea], the IC50 in assay [1] amounted to 89 nM; in assay [2], 19 nM.

Take `CC(C)(c1c(NC(=O)Nc2ccnc(C(F)(F)F)c2)cnc2cc(Cl)nn12)C1CCOCC1` [Example 80, 1-(2-chloro-7-(2-(tetrahydro-2H-pyran-4-yl)propan-2-yl)pyrazolo[1,5-a]pyrimidin-6-yl)-3-(2-(trifluoromethyl)pyridin-4-yl)urea]: the values for the IC50 in assay [1] and in assay [2] were 621 nM and 34 nM, respectively.

Take `CC1(c2c(NC(=O)Nc3cnc(-n4nccn4)c(Cl)c3)cnc3cc(Cl)nn23)CCOCC1` [Example 55, 1-(5-chloro-6-(2H-1,2,3-triazol-2-yl)pyridin-3-yl)-3-(2-chloro-7-(4-methyltetrahydro-2H-pyran-4-yl)pyrazolo[1,5-a]pyrimidin-6-yl)urea]: the results for the IC50 in assay [1] and in assay [2] were 287 nM and 5 nM, respectively.

As to `COCC1(c2c(NC(=O)Nc3ccnc(C(F)(F)F)c3)cnc3cc(Cl)nn23)CC1` [Example 77, 1-(2-chloro-7-(1-(methoxymethyl)cyclopropyl)pyrazolo[1,5-a]pyrimidin-6-yl)-3-(2-(trifluoromethyl)pyridin-4-yl)urea], the values for the IC50 in assay [1] and in assay [2] were 241 nM and 6 nM, respectively.

Turning to `COCC1(c2c(NC(=O)Nc3cnc(-n4nccn4)c(Cl)c3)cnc3cc(Cl)nn23)CCC1` [Example 50, 1-(5-chloro-6-(2H-1,2,3-triazol-2-yl)pyridin-3-yl)-3-(2-chloro-7-(1-(methoxymethyl)cyclobutyl)pyrazolo[1,5-a]pyrimidin-6-yl)urea], the IC50 turned out to be 230 nM in assay [1] and 20 nM in assay [2].

In assay [1], `Cc1cc(CO)nn1-c1ccc(NC(=O)Nc2cnc3cc(Cl)nn3c2C(C)C)cc1Cl` [Example 28, 1-(3-chloro-4-(3-(hydroxymethyl)-5-methyl-1H-pyrazol-1-yl)phenyl)-3-(2-chloro-7-isopropylpyrazolo[1,5-a]pyrimidin-6-yl)urea] returned an IC50 of 215 nM.

With `CC(C)c1c(NC(=O)Nc2cc(Cl)cc3c2NC(=O)C3)cnc2cc(Cl)nn12` [Example 31, 1-(5-chloro-2-oxoindolin-7-yl)-3-(2-chloro-7-isopropylpyrazolo[1,5-a]pyrimidin-6-yl)urea], the IC50 in assay [1] was found to be 349 nM; in assay [2], 14 nM.

As to `CN(C)C(=O)c1c(NC(=O)Nc2cnc(-n3nccn3)c(Cl)c2)cnc2cc(Cl)nn12` [Example 70, 2-chloro-6-(3-(5-chloro-6-(2H-1,2,3-triazol-2-yl)pyridin-3-yl)ureido)-N,N-dimethylpyrazolo[1,5-a]pyrimidine-7-carboxamide], the IC50 in assay [1] amounted to 891 nM; in assay [2] it was 123 nM.

As to `CC1(c2c(NC(=O)Nc3ccnc(C(F)(F)F)c3)cnc3cc(Cl)nn23)CCCO1` (stereo not drawn) [Example 36, 1-(2-chloro-7-(2-methyltetrahydrofuran-2-yl)pyrazolo[1,5-a]pyrimidin-6-yl)-3-(2-(trifluoromethyl)pyridin-4-yl)urea], the IC50 in assay [1] worked out at 183 nM; in assay [2], 9 nM.

Turning to `COc1ccccc1-c1c(NC(=O)Nc2cnc(-n3nccn3)c(Cl)c2)cnc2cc(Cl)nn12` [Example 53, 1-(5-chloro-6-(2H-1,2,3-triazol-2-yl)pyridin-3-yl)-3-(2-chloro-7-(2-methoxyphenyl)pyrazolo[1,5-a]pyrimidin-6-yl)urea], the figures for the IC50 in assay [1] and in assay [2] were 171 nM and 4 nM, respectively.

In the case of `Cn1ccnc1-c1c(NC(=O)Nc2cnc(-n3nccn3)c(Cl)c2)cnc2cc(Cl)nn12` [Example 86, 1-(5-chloro-6-(2H-1,2,3-triazol-2-yl)pyridin-3-yl)-3-(2-chloro-7-(1-methyl-1H-imidazol-2-yl)pyrazolo[1,5-a]pyrimidin-6-yl)urea], the IC50 in assay [1] came out at 569 nM.

`C[C@H](OC[C@@H]1CCOC1)c1c(NC(=O)Nc2cnc(-n3nccn3)c(Cl)c2)cnc2cc(Cl)nn12` [Example 103, 1-(5-chloro-6-(2H-1,2,3-triazol-2-yl)pyridin-3-yl)-3-(2-chloro-7-((S)-1-(((R)-tetrahydrofuran-3-yl)methoxy)ethyl)pyrazolo[1,5-a]pyrimidin-6-yl)urea]: the results for the IC50 (with Human IL2 promoter; in assay [2]) were 50 nM and 5 nM, respectively.

As for `COCC(OC)c1c(NC(=O)Nc2cnc(-n3nccn3)c(C(F)(F)F)c2)cnc2cc(Cl)nn12` (stereo not drawn) [Example 108, 1-(6-(2H-1,2,3-triazol-2-yl)-5-(trifluoromethyl)pyridin-3-yl)-3-(2-chloro-7-(1,2-dimethoxyethyl)pyrazolo[1,5-a]pyrimidin-6-yl)urea], the half-maximal inhibitory concentration (IC50) in the assay on Human IL2 promoter came to 52 nM; in assay [2], 8 nM.

As to `CN[C@@H](C)c1c(NC(=O)Nc2cnc(-n3nccn3)c(Cl)c2)cnc2cc(Cl)nn12` [Example 119, (S)-1-(5-chloro-6-(2H-1,2,3-triazol-2-yl)pyridin-3-yl)-3-(2-chloro-7-(1-(methylamino)ethyl)pyrazolo[1,5-a]pyrimidin-6-yl)urea], half-maximal inhibition in assay [1] (IC50) required 157 nM.

Turning to `CN[C@H](c1c(NC(=O)Nc2cnc(-n3nccn3)c(Cl)c2)cnc2cc(Cl)nn12)C(C)C` [Example 124, (S)-1-(5-chloro-6-(2H-1,2,3-triazol-2-yl)pyridin-3-yl)-3-(2-chloro-7-(2-methyl-1-(methylamino)propyl)pyrazolo[1,5-a]pyrimidin-6-yl)urea], the IC50 came to 41 nM in the assay on Human IL2 promoter and 8 nM in assay [2].

As for `COCCO[C@@H](C)c1c(NC(=O)Nc2cnc(OC(F)F)c(Cl)c2)cnc2cc(Cl)nn12` [Example 97, (S)-1-(5-chloro-6-(difluoromethoxy)pyridin-3-yl)-3-(2-chloro-7-(1-(2-methoxyethoxy)ethyl)pyrazolo[1,5-a]pyrimidin-6-yl)urea], the IC50 with Human IL2 promoter stood at 68 nM; in assay [2], 3 nM.

For `CO[C@@H](C)c1c(NC(=O)Nc2ccnc(C(F)(F)F)c2)cnc2cc(F)nn12` [Example 7, (S)-1-(2-fluoro-7-(1-methoxyethyl)pyrazolo[1,5-a]pyrimidin-6-yl)-3-(2-(trifluoromethyl)pyridin-4-yl)urea], the IC50 was 30 nM in the assay on Human IL2 promoter and 8 nM in assay [2].

For the compound `COCC1(c2c(NC(=O)Nc3cncc(C(F)(F)F)c3)cnc3cc(Cl)nn23)CCCO1` (stereo not drawn) [Example 106, 1-(2-chloro-7-(2-(methoxymethyl)tetrahydrofuran-2-yl)pyrazolo[1,5-a]pyrimidin-6-yl)-3-(5-(trifluoromethyl)pyridin-3-yl)urea], the IC50 in the assay with Human IL2 promoter was found to be 484 nM; in assay [2], 8 nM.

As to `COC[C@H](C)c1c(NC(=O)Nc2cnc(-n3nccn3)c(C(F)(F)F)c2)cnc2cc(Cl)nn12` [Example 111, (R)-1-(6-(2H-1,2,3-triazol-2-yl)-5-(trifluoromethyl)pyridin-3-yl)-3-(2-chloro-7-(1-methoxypropan-2-yl)pyrazolo[1,5-a]pyrimidin-6-yl)urea], the IC50 in the assay on Human IL2 promoter came to 54 nM; in assay [2], 3 nM.

On to `CO[C@@H](C)c1c(NC(=O)Nc2cnc(-n3nccn3)c(C(F)(F)F)c2)cnc2cc(F)nn12` [Example 94, (S)-1-(6-(2H-1,2,3-triazol-2-yl)-5-(trifluoromethyl)pyridin-3-yl)-3-(2-fluoro-7-(1-methoxyethyl)pyrazolo[1,5-a]pyrimidin-6-yl)urea], for which the IC50 in the assay on Human IL2 promoter amounted to 16 nM; in assay [2], 2 nM.

For `CO[C@@H](C)c1c(NC(=O)Nc2ccnc(C#N)c2)cnc2cc(Cl)nn12` [Example 105, (S)-1-(2-chloro-7-(1-methoxyethyl)pyrazolo[1,5-a]pyrimidin-6-yl)-3-(2-cyanopyridin-4-yl)urea], the IC50 was 59 nM in the assay with Human IL2 promoter and 11 nM in assay [2].

As usually defined, the IC50 is the midpoint of a concentration-inhibition curve.
